Laboratory results from PubChem BioAssay AID2060494 (Molecular Pharmacology Branch, DTP, NCI, 2025).

Tested on: 435261-313-R-J1-PDC complex spheroid viability
Experiment: Anticancer human tumor 435261-313-R-J1-PDC patient-derived colon adenocarcinoma cell line growth inhibition [GQUAD]
Settings: for IC50: curve of first compound; for viability, T/C: stronger effect = lower value
Source text: DNA G-quadruplex Stabilizer Agents in Combinations in Complex Spheroids
A high-throughput screen of multi-cell type tumor spheroids was designed to identify active combinations of DNA G-quadruplex stabilizer agents and targeted small molecules. Complex spheroids include a stromal component modeled by human endothelial cells (HUVEC) and fibroblasts modeled by human mesenchymal stem cells (MSCs). The concentration ranges selected for each drug and investigational agent were based upon clinically achievable concentrations if the clinical Cmax of the agent was known.
Compounds. The drugs and investigational agents: pidnarulex (CX-5461; NSC782164), APTO-253 (NSC789042), BRACO-19 (NSC847499), peposertib (NSC802822), ceralasertib (NSC780249), elimusertib (NSC800525), camonsertib (NSC841442), AZD-1390 (NSC803789), olaparib (NSC753686), talazoparib (NSC767125), ART-558 (NSC835418), sotorasib (NSC818433), MRTX-1133 (NSC836407), SN-38 (NSC673596), topotecan (NSC609699), etoposide (NSC141540), doxorubicin (NSC123127), gemcitabine (NSC613327), 5-fluorouracil (NSC19893), paclitaxel (NSC125973), vemurafenib (NSC761431), panobinostat (NSC761190), R-306465 (JNJ-16241199; NSC773264), adavosertib (NSC754352), TP-3654 (NSC805149), carboplatin (NSC241240), KSQ-4279 (NSC840948), and staurosporine (NSC755774) were obtained from the National Cancer Institute (NCI) Developmental Therapeutics Program Chemical Repository (34). The FDA-approved anticancer drug set is available from the NCI Developmental Therapeutics Program. […] The stock solutions were prepared in dimethyl sulfoxide (DMSO, Sigma-Aldrich, St. Louis, MO, cat. D2650) at 800-fold the tested concentration and stored at -70 degrees C prior to their use. All drugs and investigational agents were tested over a range starting from a high concentration at or near the clinical Cmax and decreasing in half-log increments. If the clinical Cmax for an agent had not been determined, the highest concentration tested was 10 microM.
2.3 Cell Culture. All cells were maintained in an incubator at 37 degrees C and 5% CO2 with 95% humidity. The PDC lines were cultured according to standard operating procedures established by the NCI PDMR. All PDCs were thawed and cultured in Matrigel-coated flasks prepared with a working solution of 1X Ham's F-12 nutrient mix, without supplementation (Invitrogen, cat. 11765054), 100 U/mL penicillin-streptomycin (Invitrogen, cat. 15140122), and 2.5% Matrigel (Corning Inc., cat. 354248) for the first three passages. The 857933-349-R-J2-PDC line was cultured in 6C/Colon 1B media, which includes advanced DMEM/F-12 (Thermo Fisher Scientific, cat. 12634028), 10 mM HEPES (Thermo Fisher Scientific, cat. 15630080), 1X GlutaMAX supplement (Thermo Fisher Scientific, cat. 35050061), 0.1 mg/mL primocin (InvivoGen, cat. ant-pm-2), 10% defined fetal bovine serum, heat inactivated (HyClone Laboratories Inc., cat. SH30070.03HI), 50% L-WRN conditioned media (ATCC, cat. CRL-3276), 1.25 mM N-Acetyl-L-cysteine (Sigma-Aldrich, cat. A9165), 10 mM nicotinamide (Sigma-Aldrich, cat. N0636), 1X B-27 supplement (Thermo Fisher Scientific, cat. 17504044), 1X N-2 supplement (Thermo Fisher Scientific, cat. 17502048), 10 microM Y-27632 dihydrochloride (Tocris Bioscience, cat. 1254), and 50 ng/mL human EGF recombinant protein (Thermo Fisher Scientific, cat. PHG0311). The 485176-168-R4-J1-PDC line was cultured in Panc media, which includes all 6C/Colon 1B media components plus 100 ng/mL human FGF-10 (Thermo Fisher Scientific, cat. 100-26), 500 nM SB-431542 (Selleckchem, cat. S1067), and gastrin (Tocris, cat. 3006).
[…]

[1] = second compound 0.0316 µM, first compound 0.0316 µM
[2] = second compound 0.0316 µM, first compound 0.1 µM
[3] = second compound 0.0316 µM, first compound 0.316 µM
[4] = second compound 0.0316 µM, first compound 1 µM
[5] = second compound 0.0316 µM, first compound 3.16 µM
[6] = second compound 0.0316 µM, first compound 10 µM
[7] = second compound 0.1 µM, first compound 0.0316 µM
[8] = second compound 0.1 µM, first compound 0.1 µM
[9] = second compound 0.1 µM, first compound 0.316 µM
[10] = second compound 0.1 µM, first compound 1 µM
[11] = second compound 0.1 µM, first compound 3.16 µM
[12] = second compound 0.1 µM, first compound 10 µM
[13] = second compound 0.316 µM, first compound 0.0316 µM
[14] = second compound 0.316 µM, first compound 0.1 µM
[15] = second compound 0.316 µM, first compound 0.316 µM
[16] = second compound 0.316 µM, first compound 1 µM
[17] = second compound 0.316 µM, first compound 3.16 µM
[18] = second compound 0.316 µM, first compound 10 µM
[19] = second compound 1 µM, first compound 0.0316 µM
[20] = second compound 1 µM, first compound 0.1 µM
[21] = second compound 1 µM, first compound 0.316 µM
[22] = second compound 1 µM, first compound 1 µM
[23] = second compound 1 µM, first compound 3.16 µM
[24] = second compound 1 µM, first compound 10 µM
[25] = second compound 3.16 µM, first compound 0.0316 µM
[26] = second compound 3.16 µM, first compound 0.1 µM
[27] = second compound 3.16 µM, first compound 0.316 µM
[28] = second compound 3.16 µM, first compound 1 µM
[29] = second compound 3.16 µM, first compound 3.16 µM
[30] = second compound 3.16 µM, first compound 10 µM
[31] = second compound 10 µM, first compound 0.0316 µM
[32] = second compound 10 µM, first compound 0.1 µM
[33] = second compound 10 µM, first compound 0.316 µM
[34] = second compound 10 µM, first compound 1 µM
[35] = second compound 10 µM, first compound 3.16 µM
[36] = second compound 10 µM, first compound 10 µM
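Also: spheroids exposed to the agents for seven days before readout.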
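For viability, T/C in this document: percent of vehicle control viability with DMSO wells as 100%.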

Molecule `CC1COCCN1c1cc(C2(S(C)(=N)=O)CC2)nc(-c2ccnc3[nH]ccc23)n1` (centres undefined) + Cc1[nH]c2ccc(F)cc2c1-c1nc2c3cccnc3c3ncccc3c2[nH]1 has an IC50 (second compound 0.0316 µM) greater than 10000 nM, an IC50 (second compound 0.1 µM) greater than 10000 nM and an IC50 (second compound 0.316 µM) of 3270 nM. The IC50 (second compound 1 µM) was 1280 nM, the IC50 (second compound 3.16 µM) was less than 31.6 nM and the IC50 (second compound 10 µM) was less than 31.6 nM. The viability, T/C [1] was 111%, the viability, T/C [2] was 85.9% and the viability, T/C [3] was 107%. It also gave a viability, T/C [4] of 60.5%, a viability, T/C [5] of 66% and a viability, T/C [6] of 52.2%. For the same molecule, the viability, T/C [7] was 93%, the viability, T/C [8] was 106% and the viability, T/C [9] was 90.5%. The viability, T/C [10] was 83.7%, the viability, T/C [11] was 80.2% and the viability, T/C [12] was 55.4%. It also gave a viability, T/C [13] of 94.2%, a viability, T/C [14] of 127% and a viability, T/C [15] of 74.8%. It also gave a viability, T/C [16] of 106%, a viability, T/C [17] of 50.1% and a viability, T/C [18] of 47.9%. The viability, T/C [19] was 54.4%, the viability, T/C [20] was 65.6% and the viability, T/C [21] was 68%. The viability, T/C [22] was 52.6%, the viability, T/C [23] was 36.4% and the viability, T/C [24] was 30%. For the same molecule, the viability, T/C [25] was 29.6%, the viability, T/C [26] was 37.1% and the viability, T/C [27] was 30.3%. The viability, T/C [28] was 28.9%, the viability, T/C [29] was 21.6% and the viability, T/C [30] was 12.2%. The viability, T/C [31] was 30.7%, the viability, T/C [32] was 22.6% and the viability, T/C [33] was 28.1%. The viability, T/C [34] was 18.4%, the viability, T/C [35] was 14.9% and the viability, T/C [36] was 8.85%.

`O=C(NO)c1cnc(N2CCN(S(=O)(=O)c3ccc4ccccc4c3)CC2)nc1` + Cc1[nH]c2ccc(F)cc2c1-c1nc2c3cccnc3c3ncccc3c2[nH]1 gave an IC50 (second compound 0.0316 µM) of 430 nM, an IC50 (second compound 0.1 µM) of 503 nM and an IC50 (second compound 0.316 µM) of 600 nM. The IC50 (second compound 1 µM) was 541 nM, the IC50 (second compound 3.16 µM) was less than 31.6 nM and the IC50 (second compound 10 µM) was less than 31.6 nM. The viability, T/C [1] was 72.4%, the viability, T/C [2] was 66.6% and the viability, T/C [3] was 52.3%. The viability, T/C [4] was 37.3%, the viability, T/C [5] was 0.25% and the viability, T/C [6] was 0.68%. For the same molecule, the viability, T/C [7] was 72.8%, the viability, T/C [8] was 79.5% and the viability, T/C [9] was 62%. For the same molecule, the viability, T/C [10] was 30.2%, the viability, T/C [11] was 0.15% and the viability, T/C [12] was 0.1%. The viability, T/C [13] was 60.8%, the viability, T/C [14] was 75.7% and the viability, T/C [15] was 65.5%. The viability, T/C [16] was 36.8%, the viability, T/C [17] was 0.27% and the viability, T/C [18] was 0.1%. It also gave a viability, T/C [19] of 71%, a viability, T/C [20] of 65.6% and a viability, T/C [21] of 57.6%. The viability, T/C [22] was 38.4%, the viability, T/C [23] was 0.35% and the viability, T/C [24] was 0.13%. The viability, T/C [25] was 42.5%, the viability, T/C [26] was 25.7% and the viability, T/C [27] was 27%. For the same molecule, the viability, T/C [28] was 30.6%, the viability, T/C [29] was 0.41% and the viability, T/C [30] was 0.14%. It also gave a viability, T/C [31] of 29.7%, a viability, T/C [32] of 28.4% and a viability, T/C [33] of 20.8%. For the same molecule, the viability, T/C [34] was 12.5%, the viability, T/C [35] was 0.86% and the viability, T/C [36] was 0.16%.
